Patent US9260468B1, “2,3′-anhydro-2′-deoxy-5-fluorouridine derivatives with cytotoxic activity, a manufacturing process and application” (ADAM MICKIEWICZ UNIVERSITY, priority 2014, dated 2016)
“And” between values parts separate entries of the source, which are not always exact repeats. Equal entries are not always repeated. Where two headings read alike, the source gives them in different places.

What was measured:
HeLa (cervical cancer) = test: Cytotoxicity test with sulphorhodamine B, HeLa line; type: cell-based; conditions: for SI, HeLa: SI = IC50 normal cell line (fibroblasts) / IC50 HeLa
Method: (§1) Cytotoxic activity tests were performed using the following cancer cell lines: MCF-7 (breast cancer), HeLa (cervical cancer) A549 (lung cancer) and KB (nasopharynx cancer) and normal cells (human dermal fibroblasts, HDF) obtained from ECACC (European Collection of Cell Cultures).
(§2) Cytotoxicity tests were carried out using a standard procedure with sulphorhodamine B. They involved incubation of the cancer cell lines in the logarithmic growth phase for 72 hours with the compound tested and, subsequently, spectrophotometric determination of the degree of cell growth inhibition using adsorption of a dye (sulphorhodamine B) which binds cellular proteins. The determination was carried out according to a procedure reported in: Vichai, V., Kirtikara, K. Nature Protocols, 2006, 1, 1112.
(§3) Cells of the cell line tested in the logarithmic growth phase were seeded onto 24-well plates in a quantity of 20.000 cells/2 mL of the growth medium per well and, subsequently, incubated in an incubator at 37° C., in the 5% CO2 atmosphere for 24 hours.
(§4) Solutions of the test compounds were prepared in DMSO in the following concentrations: 0.05; 0.1; 0.5; 1; 5; 10; 50; 100; 500 μM.
(§5) The cells of the lines tested were treated with the solutions of the test compounds in a laminar-flow chamber which ensured sterile working conditions according to the following procedure: the first three wells were used as a control: they contained 20 μL of DMSO only; successive solutions of the test compound were added to subsequent wells (20 μL), starting with the lowest concentration (three wells for each concentration level). Subsequently, the plates were placed in an incubator at 37° C. for 72 hours. After the end of incubation, the adhered cells were fixed by adding 500 μL of cold (4° C.) 50% trichloroacetic acid (TCA) and incubated at 4° C. for 1 hour. Subsequently, each well was rinsed with sterile water and dried. The rinsing was repeated five times. The fixed cells were stained for 30 minutes by adding 500 μL of 0.4% dye solution (sulphorhodamine B) dissolved in 1% acetic acid. Any unbound dye was removed by decanting it from the plate, and the cells were washed 4 times with 1% acetic acid. Subsequently, the plates were dried in air for approx. 5 minutes. Bounded dye was dissolved by adding 1500 μL of 10 mM Tris-base buffer (trishydroxymethylaminomethane) to each well and shaken using an orbital shaker for 5 minutes. Subsequently, 200 μL of solution from each well was transferred to each of two wells on a new 96-well plate and absorption of the solutions was determined spectrophotometrically at a wavelength of 490-530 nm using a plate reader.
(§6) Cytotoxicity tests for the other compounds and cell lines were performed following an identical procedure.
(§7) The MCF-7 line was grown in Dulbecco's Modified Eagle's Medium (DME) from Sigma (cat. no. D5796), while the HeLa, A549 and KB lines were grown in RPMI-1640 Medium from Sigma (cat. no. R8758).
(§8) IC50 values, being concentration of a compound needed to obtain 50% inhibition of cell growth, were determined for all the derivatives tested.

[1] = Cytotoxicity test with sulphorhodamine B, normal fibroblasts; type: cell-based; conditions: human, normal human dermal fibroblasts (HDF), normal cells, 72 hours incubation, read-out: Cytotoxic activity, IC50, Fibroblasts (HDF)
Method: as §1, §2, §3
Solutions of the test compounds were prepared in DMSO in the following concentrations: 0.05; 0.1; 0.5; 1; 5; 10; 50; 100; 500 μM. […]

MCF-7 (breast cancer) = test: Cytotoxicity test with sulphorhodamine B, MCF-7 line; type: cell-based; conditions: for SI, MCF-7: SI = IC50 normal cell line (fibroblasts) / IC50 MCF-7
Method: as §1, §2, §3, §4, §5, §6, §7, §8

KB (nasopharynx cancer) = test: Cytotoxicity test with sulphorhodamine B, KB line; type: cell-based; conditions: for SI, KB: SI = IC50 normal cell line (fibroblasts) / IC50 KB
Method: as §1, §2, §3, §4, §5, §6, §7, §8

Huh-7 line = conditions: literature (Srivastav et al. 2010); cited from earlier work
HBV = conditions: literature (Srivastav et al. 2010); cited from earlier work
A549 (lung cancer) = test: Cytotoxicity test with sulphorhodamine B, A549 line; type: cell-based; conditions: for IC50: Homo sapiens
Method: as §1, §2, §3, §4, §5, §6, §7, §8

[2] = Homo sapiens, HeLa, 72 h, read-out: Cytotoxic activity, IC50, HeLa (cervical cancer)
[3] = Homo sapiens, HeLa, read-out: Cytotoxic activity class, HeLa (cervical cancer)
[4] = Homo sapiens, MCF7, 72 h, read-out: Cytotoxic activity, IC50, MCF-7 (breast cancer)
[5] = Homo sapiens, MCF7, read-out: Cytotoxic activity class, MCF-7 (breast cancer)
[6] = 72 h, read-out: Cytotoxic activity, IC50, KB (nasopharynx cancer)
[7] = read-out: Cytotoxic activity class, KB (nasopharynx cancer)
[8] = 72 hours incubation, sulphorhodamine B, average of three determinations
[9] = class A/MA/NA by IC50 in μg/mL, read-out: Cytotoxic activity class, KB (nasopharynx cancer)
[10] = Homo sapiens, HeLa, class A/MA/NA by IC50 in μg/mL, read-out: Cytotoxic activity class, HeLa (cervical cancer)
[11] = A549, class A/MA/NA by IC50 in μg/mL, read-out: Cytotoxic activity class, A549 (lung cancer)
[12] = Homo sapiens, MCF7, class A/MA/NA by IC50 in μg/mL, read-out: Cytotoxic activity class, MCF-7 (breast cancer)

| Structure (SMILES) | IC50 (HeLa (cervical cancer); [2]) | IC50 (HeLa (cervical cancer); [3]) | SI, HeLa (HeLa (cervical cancer)) | IC50 at 72 h [1] | IC50 (MCF-7 (breast cancer); [4]) | IC50 (MCF-7 (breast cancer); [5]) | SI, MCF-7 (MCF-7 (breast cancer)) | IC50 (KB (nasopharynx cancer); [6]) | SI, KB (KB (nasopharynx cancer)) | IC50 (KB (nasopharynx cancer); [7]) | IC50 (KB (nasopharynx cancer); [9]) | IC50 (HeLa (cervical cancer); [10]) | IC50 (A549 (lung cancer); [11]) | IC50 (MCF-7 (breast cancer); [12]) | further results |
| --- | --- | --- | --- | --- | --- | --- | --- | --- | --- | --- | --- | --- | --- | --- | --- |
| O=c1nc2n(cc1F)C1CC(O2)C(COP(=O)(NCCF)Oc2ccc(Cl)cc2)O1 (centres unmarked) [MFEAdFU] | 16 µg/mL and 34.5 µM | 4 to 30 µg/mL | 2.7 | 43.1 µg/mL and 92.9 µM | 11.8 µg/mL and 25.4 µM | 4 to 30 µg/mL | 3.7 | 12.2 µg/mL and 26.3 µM | 3.5 | 4 to 30 µg/mL | – | – | – | – | – |
| O=c1nc2n(cc1F)[C@H]1C[C@@H](O2)[C@@H](CO)O1 [2,3′-anhydro-2′-deoxy-5-fluorouridine] | – | – | – | – | – | – | – | – | – | – | 4 to 30 µg/mL | – | – | – | Cytotoxic activity, IC50, HeLa (cervical cancer) (HeLa (cervical cancer); [8]): 11.0 µg/mL; IC50 (HeLa (cervical cancer); 72 hours incubation, sulphorhodamine B, read-out: Cytotoxic activity, IC50, HeLa (cervical cancer)): 48.2 µM; Cytotoxic activity class, HeLa (cervical cancer) (HeLa (cervical cancer); class A/MA/NA by IC50 in μg/mL): MA (IC50 range of 4-30 μg/mL are considered medium active); cytotoxic activity against the Huh-7 line, IC50 (Huh-7 line): > 200 µg/mL; Cytotoxic activity, IC50, MCF-7 (breast cancer) (MCF-7 (breast cancer); [8]): 3.7 µg/mL; IC50 (MCF-7 (breast cancer); 72 hours incubation, sulphorhodamine B, read-out: Cytotoxic activity, IC50, MCF-7 (breast cancer)): 16.2 µM; Cytotoxic activity class, MCF-7 (breast cancer) (MCF-7 (breast cancer); class A/MA/NA by IC50 in μg/mL): A (IC50<4 μg/mL are generally assumed as active); antiviral activity against HBV (HBV): weak antiviral activity; Cytotoxic activity, IC50, KB (nasopharynx cancer) (KB (nasopharynx cancer); [8]): 11.0 µg/mL; IC50 (KB (nasopharynx cancer); 72 hours incubation, sulphorhodamine B, read-out: Cytotoxic activity, IC50, KB (nasopharynx cancer)): 48.2 µM |
| O=c1[nH]cc(F)c(=O)[nH]1 [5-fluorouracil, reference compound] | – | – | – | – | – | – | – | – | – | – | < 4 µg/mL | < 4 µg/mL | < 4 µg/mL | < 4 µg/mL | – |
| O=c1nc2n(cc1F)C1CC(O2)C(COP(=O)(NCC(F)(F)F)Oc2ccc(Cl)cc2)O1 (centres unmarked) [FEAdFU, 2,3′-anhydro-2′-deoxy-5-fluorouridine 5′-[N-(2,2,2-trifluoroethyl)-O-(4-chlorophenyl)]phosphate] | 360 nM and 0.18 µg/mL | < 4 µg/mL | 33 and 33.3 | 6 µg/mL and 12 µM | 240 nM and 0.12 µg/mL | < 4 µg/mL | 50 | 400 nM and 0.2 µg/mL | 30 | < 4 µg/mL | – | – | – | – | fold higher cytotoxicity than 5FU, HeLa (HeLa (cervical cancer); versus 5FU): more than 58 fold; fold higher cytotoxicity than 5FdU, HeLa (HeLa (cervical cancer); versus 5FdU): more than 36 fold; fold higher cytotoxicity than AdFU, HeLa (HeLa (cervical cancer); versus AdFU): more than 133 fold; IC50 (A549 (lung cancer); A549, 72 h, read-out: Cytotoxic activity, IC50, A549 (lung cancer)): 400 nM and 0.2 µg/mL; IC50 (A549 (lung cancer); A549, read-out: Cytotoxic activity class, A549 (lung cancer)): < 4 µg/mL; SI, A549 (A549 (lung cancer); SI = IC50 normal cell line (fibroblasts) / IC50 A549): 30; fold higher cytotoxicity than 5FU, A549 (A549 (lung cancer); versus 5FU): more than 53 fold; fold higher cytotoxicity than 5FdU, A549 (A549 (lung cancer); versus 5FdU): more than 33 fold; fold higher activity than 5FU, MCF-7 (MCF-7 (breast cancer); versus 5FU): more than 75 fold; fold higher activity than 5FdU, MCF-7 (MCF-7 (breast cancer); versus 5FdU): more than 47 fold; fold higher activity than AdFU, MCF-7 (MCF-7 (breast cancer); versus AdFU): 67 fold; fold higher cytotoxicity than 5FU, KB (KB (nasopharynx cancer); versus 5FU): more than 55 fold; fold higher cytotoxicity than 5FdU, KB (KB (nasopharynx cancer); versus 5FdU): more than 34 fold; fold higher cytotoxicity than AdFU, KB (KB (nasopharynx cancer); versus AdFU): 120 fold |
| O=c1[nH]c(=O)n([C@H]2C[C@H](O)[C@@H](CO)O2)cc1F [5-fluoro-2′-deoxyuridine, reference compound] | – | – | – | – | – | – | – | – | – | – | < 4 µg/mL | < 4 µg/mL | < 4 µg/mL | < 4 µg/mL | – |
